From patent US9029405B2, “5-(biphenyl-4-yl)-3-phenyl-1,2,4-oxadiazolyl derivatives as ligands on the sphingosine 1-phosphate(SIP)receptors” (Merck Serono S.A., priority 2010, dated 2015)
Where a name gives a salt, the structure may show the parent alone. Read-outs that look alike come from different tables or passages of the source.

Tests used:
S1P1 [1] = biological target: T1, S1P1 (Homo sapiens, UniProt P21453); test: S1P1 internalization assay in S1P1-U2OS cells (cell imaging); format: cell-based; parameters: host or cells: U2OS (human bone osteosarcoma epithelial cells); settings: U2OS cells expressing S1P1-EGFP, 384-well format
In short: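 U2OS cells stably expressing human S1P1-EGFP, serum-starved 2 h in medium with 0.1% fatty-acid-free BSA, then compound 1 h at 37° C. After fixation and Hoechst nuclear stain, receptor internalization imaged as EGFP spot count per nucleus.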
Target sequence in this assay (P21453 whole entry): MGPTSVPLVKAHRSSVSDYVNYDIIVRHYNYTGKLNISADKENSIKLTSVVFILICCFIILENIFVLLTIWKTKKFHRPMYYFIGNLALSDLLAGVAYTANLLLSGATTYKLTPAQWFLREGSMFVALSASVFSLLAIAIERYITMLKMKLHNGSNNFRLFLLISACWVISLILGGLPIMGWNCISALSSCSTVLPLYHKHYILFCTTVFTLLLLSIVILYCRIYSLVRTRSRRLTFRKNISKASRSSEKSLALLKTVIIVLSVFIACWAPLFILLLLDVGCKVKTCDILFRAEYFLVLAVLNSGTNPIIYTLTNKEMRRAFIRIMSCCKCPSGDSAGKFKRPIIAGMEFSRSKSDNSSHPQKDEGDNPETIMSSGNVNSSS

S1P1 [2] = biological target: T1, S1P1; test: Receptor binding assay, [33P]sphingosine 1-phosphate competition, membranes of CHO cells expressing S1P1
In short: (§1)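 SPA competition on CHO membranes with [33P]S1P at 30 pM (S1P1) or 15 pM (S1P3), in 50 mM HEPES pH 7.5, 5 mM MgCl2, 100 mM NaCl, 0.4% fatty acid-free BSA, 60 min at RT. Non-specific binding defined by 1000-fold unlabeled S1P; Ki values reported.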
Target sequence in this assay (P21453 whole entry, species assumed): as the sequence (P21453 whole entry) above

S1P3 = S1P3 (Homo sapiens, UniProt Q99500); test: Receptor binding assay, [33P]sphingosine 1-phosphate competition, membranes of CHO cells expressing S1P3
In short: as §1

[3] = 384 well plate, read-out: S1P1 Binding Ki [M] (384 well plate)
[4] = 384 well plate, read-out: S1P3 Binding Ki [M] (384 well plate)

Sequence of S1P3 (Q99500 whole entry, species assumed): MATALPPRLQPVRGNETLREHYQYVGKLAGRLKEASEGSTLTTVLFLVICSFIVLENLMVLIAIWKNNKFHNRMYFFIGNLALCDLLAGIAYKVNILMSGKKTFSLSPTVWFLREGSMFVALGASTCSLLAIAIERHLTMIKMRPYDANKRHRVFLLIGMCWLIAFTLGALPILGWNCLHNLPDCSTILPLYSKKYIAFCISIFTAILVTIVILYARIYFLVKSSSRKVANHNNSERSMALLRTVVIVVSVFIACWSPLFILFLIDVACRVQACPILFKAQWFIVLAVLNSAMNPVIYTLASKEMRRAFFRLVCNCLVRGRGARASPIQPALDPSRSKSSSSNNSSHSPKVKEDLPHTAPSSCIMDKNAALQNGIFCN

Row | EC50 (S1P1 [1]) | Ki (S1P1 [2]; [3]) | Ki (S1P3; [4]) | Ki (S1P1 [2]; 96 well plate, read-out: S1P1 Binding Ki [M] (96 well plate)) | Ki (S1P3; 96 well plate, read-out: S1P3 Binding Ki [M] (96 well plate)) | Compound
1 | 33.6 nM | 2.55e-09 M | 7.93e-07 M | – | – | Cc1ccccc1-c1ccc(-c2nc(-c3ccc([C@@H](C)N(C)CC(=O)O)cc3)no2)cc1C(F)(F)F [Example 36, N-methyl-N-[(1R)-1-(4-{5-[2′-methyl-2-(trifluoromethyl)biphenyl-4-yl]-1,2,4-oxadiazol-3-yl}phenyl)ethyl]glycine, hydrochloride salt]
2 | 15.1 nM | 1.44e-09 M | 3.4e-06 M | – | – | COCc1cc(-c2nc(-c3ccc(C(C)N(C)[C@@H](C)C(=O)O)cc3)no2)ccc1-c1ccccc1C (some centres unmarked) [Example 37, N-[1-(4-{5-[2-(methoxymethyl)-2′-methylbiphenyl-4-yl]-1,2,4-oxadiazol-3-yl}phenyl)ethyl]-N-methylalanine]
3 | 12.8 nM | 4.88e-09 M | 8.72e-06 M | – | – | CCC(NCc1ccc(-c2noc(-c3ccc(-c4ccccc4C)c(C(F)(F)F)c3)n2)cc1F)C(=O)O (centres unmarked) [Example 41, 2-[(2-fluoro-4-{5-[2′-methyl-2-(trifluoromethyl)biphenyl-4-yl]-1,2,4-oxadiazol-3-yl}benzyl)amino]butanoic acid, hydrochloride salt]
4 | 9.34 nM | 7.94e-10 M | 9.55e-08 M | – | – | Cc1ccccc1-c1ccc(-c2nc(-c3cc(F)cc(CNC(C)(C)C(=O)O)c3)no2)cc1C(F)(F)F [Example 46, N-(3-fluoro-5-{5-[2′-methyl-2-(trifluoromethyl)biphenyl-4-yl]-1,2,4-oxadiazol-3-yl}benzyl)-2-methylalanine, hydrochloride salt]
5 | 39.1 nM | 4.26e-09 M | 1.95e-05 M | – | – | Cc1ccccc1-c1ccc(-c2nc(-c3ccc(CN[C@H](C(=O)O)C(C)C)c(F)c3)no2)cc1C(F)(F)F [Example 47, N-(2-fluoro-4-{5-[2′-methyl-2-(trifluoromethyl)biphenyl-4-yl]-1,2,4-oxadiazol-3-yl}benzyl)valine, hydrochloride salt]
6 | 13.8 nM | 1.06e-09 M | 9.71e-07 M | – | – | Cc1ccccc1-c1ccc(-c2nc(-c3ccc(CNC(C)(C)C(=O)O)c(F)c3)no2)cc1C(F)(F)F [Example 49, N-(2-fluoro-4-{5-[2′-methyl-2-(trifluoromethyl)biphenyl-4-yl]-1,2,4-oxadiazol-3-yl}benzyl)-2-methylalanine, hydrochloride salt]
7 | 25.8 nM | 3.02e-09 M | 6.61e-07 M | – | – | Cc1ccccc1-c1ccc(-c2nc(-c3ccc(CN(C)[C@@H](C)C(=O)O)c(F)c3)no2)cc1C(F)(F)F [Example 50, N-(2-fluoro-4-{5-[2′-methyl-2-(trifluoromethyl)biphenyl-4-yl]-1,2,4-oxadiazol-3-yl}benzyl)-N-methylalanine, hydrochloride salt]
8 | 42.2 nM | 3.97e-09 M | 3.64e-06 M | – | – | COCc1cc(-c2nc(-c3ccc(CN(C)C4(C(=O)O)CCCC4)cc3)no2)ccc1-c1ccccc1C [Example 53, 1-((4-(5-(2-(methoxymethyl)-2′-methylbiphenyl-4-yl)-1,2,4-oxadiazol-3-yl)benzyl)(methyl)amino)cyclopentanecarboxylic acid]
9 | 39.7 nM | 7.95e-09 M | 6.69e-06 M | – | – | CC[C@H](NCc1ccc(-c2noc(-c3ccc(-c4ccccc4C)c(C(F)(F)F)c3)n2)cc1)C(=O)O [Example 54, (2S)-2-(4-(5-(2′-methyl-2-(trifluoromethyl)biphenyl-4-yl)-1,2,4-oxadiazol-3-yl)benzylamino)butanoic acid]
10 | 4.87 nM | 3.39e-09 M | 5.22e-06 M | – | – | CCC(NCc1ccc(-c2noc(-c3ccc(-c4ccccc4C)c(C(F)(F)F)c3)n2)cc1)C(=O)O (centres unmarked) [Example 58]
11 | 44.4 nM | 6.83e-09 M | > 2e-05 M | – | – | Cc1ccccc1-c1ccc(-c2nc(-c3ccc(CNC4(C(=O)O)CCCC4)cc3)no2)cc1C(F)(F)F [Example 59]
12 | 23.3 nM | 4.27e-09 M | 1.15e-06 M | – | – | Cc1ccccc1-c1ccc(-c2nc(-c3ccc(CN[C@H](C(=O)O)[C@@H](C)O)cc3)no2)cc1C(F)(F)F [Example 61]

Further lines, the molecule ahead of its results:

Row | Compound | EC50 (S1P1 [1]) | Ki (S1P1 [2]; [3]) | Ki (S1P3; [4]) | Ki (S1P1 [2]; 96 well plate, read-out: S1P1 Binding Ki [M] (96 well plate)) | Ki (S1P3; 96 well plate, read-out: S1P3 Binding Ki [M] (96 well plate))
13 | Cc1ccccc1-c1ccc(-c2nc(-c3ccc([C@H](C)N(C)CC(=O)O)cc3)no2)cc1C(F)(F)F [Example 34, N-methyl-N-[(1S)-1-(4-{5-[2′-methyl-2-(trifluoromethyl)biphenyl-4-yl]-1,2,4-oxadiazol-3-yl}phenyl)ethyl]glycine, hydrochloride salt] | 26.3 nM | 4.47e-09 M | 6e-06 M | – | –
14 | Cc1cc(-c2nc(-c3cccc(C(C)NCC(=O)O)c3)no2)ccc1-c1ccccc1C(F)(F)F (centres unmarked) [Example 38, N-[1-(3-{5-[2-methyl-2′-(trifluoromethyl)biphenyl-4-yl]-1,2,4-oxadiazol-3-yl}phenyl)ethyl]glycine, hydrochloride salt] | 77.9 nM | 2.84e-09 M | 1.43e-06 M | – | –
15 | Cc1ccccc1-c1ccc(-c2nc(-c3ccc(C(C)N(C)[C@@H](C)C(=O)O)cc3)no2)cc1C(F)(F)F (some centres unmarked) [Example 39, N-methyl-N-[1-(4-{5-[2′-methyl-2-(trifluoromethyl)biphenyl-4-yl]-1,2,4-oxadiazol-3-yl}phenyl)ethyl]alanine] | 20.9 nM | 4.34e-09 M | 3.18e-06 M | – | –
16 | Cc1ccccc1-c1ccc(-c2nc(-c3ccc(C(C)N(C)CC(=O)O)cc3)no2)cc1C(F)(F)F (centres unmarked) [Example 40, N-methyl-N-[1-(4-{5-[2′-methyl-2-(trifluoromethyl)biphenyl-4-yl]-1,2,4-oxadiazol-3-yl}phenyl)ethyl]glycine, hydrochloride salt] | 17.8 nM | 2.17e-09 M | 5.32e-07 M | – | –
17 | Cc1ccccc1-c1ccc(-c2nc(-c3cccc(C(C)NCC(=O)O)c3)no2)cc1C(F)(F)F (centres unmarked) [Example 42, N-[1-(3-{5-[2′-methyl-2-(trifluoromethyl)biphenyl-4-yl]-1,2,4-oxadiazol-3-yl}phenyl)ethyl]glycine, hydrochloride salt] | 7.17 nM | 1.02e-09 M | 1.06e-07 M | – | –
18 | COCc1cc(-c2nc(-c3ccc(CN(C)C(C)(C)C(=O)O)c(F)c3)no2)ccc1-c1ccccc1C [Example 43, N-(2-fluoro-4-{5-[2-(methoxymethyl)-2′-methylbiphenyl-4-yl]-1,2,4-oxadiazol-3-yl}benzyl)-N,2-dimethylalanine, hydrochloride salt] | 24.1 nM | 2.32e-09 M | 8.4e-07 M | 6.3e-10 M | 3.15e-06 M
19 | COCc1cc(-c2nc(-c3ccc(CN(C)[C@@H](C)C(=O)O)c(F)c3)no2)ccc1-c1ccccc1C [Example 44, N-(2-fluoro-4-{5-[2-(methoxymethyl)-2′-methylbiphenyl-4-yl]-1,2,4-oxadiazol-3-yl}benzyl)-N-methylalanine, hydrochloride salt] | 6.29 nM | 1.58e-09 M | 8.69e-07 M | – | –
20 | Cc1ccccc1-c1ccc(-c2nc(-c3ccc(CN(C)[C@@H](CO)C(=O)O)c(F)c3)no2)cc1C(F)(F)F [Example 45, N-(2-fluoro-4-{5-[2′-methyl-2-(trifluoromethyl)biphenyl-4-yl]-1,2,4-oxadiazol-3-yl}benzyl)-N-methylserine, hydrochloride salt] | 30.8 nM | 2.68e-09 M | 4.36e-07 M | – | –
21 | Cc1cc(-c2nc(-c3ccc(CNC(C)(C)C(=O)O)c(F)c3)no2)ccc1-c1ccccc1C(F)(F)F [Example 48, N-(2-fluoro-4-{5-[2-methyl-2′-(trifluoromethyl)biphenyl-4-yl]-1,2,4-oxadiazol-3-yl}benzyl)-2-methylalanine, hydrochloride salt] | 23.8 nM | 4.68e-09 M | > 2e-05 M | – | –
22 | Cc1ccccc1-c1ccc(-c2nc(-c3ccc(C(CO)NCC(=O)O)cc3)no2)cc1C(F)(F)F (centres unmarked) [Example 52, 2-(2-Hydroxy-1-(4-(5-(2′-methyl-2-(trifluoromethyl)biphenyl-4-yl)-1,2,4-oxadiazol-3-yl)phenyl)ethylamino)acetic acid] | 10.2 nM | 3.76e-09 M | 1.08e-06 M | – | –
23 | Cc1ccccc1-c1ccc(-c2nc(-c3ccc(CN[C@H](C(=O)O)C(C)C)cc3)no2)cc1C(F)(F)F [Example 55] | 16.8 nM | 2.2e-09 M | 8.02e-07 M | – | –
24 | Cc1ccccc1-c1ccc(-c2nc(-c3ccc(CN(C)C(C)(C)C(=O)O)cc3)no2)cc1C(F)(F)F [Example 56] | 57.8 nM | 4.13e-09 M | 8.54e-06 M | – | –
25 | Cc1ccccc1-c1ccc(-c2nc(-c3ccc(CNC(C)(C)C(=O)O)cc3)no2)cc1C(F)(F)F [Example 57] | 19.9 nM | 5.69e-09 M | > 2e-05 M | – | –
26 | Cc1ccccc1-c1ccc(-c2nc(-c3ccc(CN[C@@H](CCO)C(=O)O)cc3)no2)cc1C(F)(F)F [Example 60] | 24.2 nM | 3.46e-09 M | 1.03e-06 M | – | –
27 | Cc1ccccc1-c1ccc(-c2nc(-c3ccc(CNCC(C)C(=O)O)cc3)no2)cc1C(F)(F)F (centres unmarked) [Example 63] | 3.47 nM | 1.15e-09 M | 2.02e-07 M | – | –
28 | Cc1ccccc1-c1ccc(-c2nc(-c3ccc(CNC(C(=O)O)C(C)O)cc3)no2)cc1C(F)(F)F (centres unmarked) [Example 64] | 45.9 nM | 6.78e-09 M | 1.99e-06 M | – | –
29 | Cc1ccccc1-c1ccc(-c2nc(-c3ccc(CNC(C)(CO)C(=O)O)cc3)no2)cc1C(F)(F)F (centres unmarked) [Example 65] | 7.53 nM | 4.82e-09 M | 2.56e-06 M | – | –
30 | Cc1ccccc1-c1ccc(-c2nc(-c3ccc(CNC4(C(=O)O)CCC4)cc3)no2)cc1C(F)(F)F [Example 66] | 27.6 nM | 3.86e-09 M | 9.31e-07 M | – | –
